# Measurements: article PMC5598150 (Toxicology Reports, 2015)
# pIC50: −log10 of the molar value.
# Tests used:
# [1] = system: human neuroblastoma SK-N-SH cells; assay: MTT assay of cell viability in SK-N-SH neuroblastoma cells; format: cell-based
# [2] = system: primary rat cortical neurons; assay: Live and Dead cell staining of primary neuronal cultures; format: cell-based; settings: 24 h
# [3] = partition coefficient between octanol and water; cited from earlier work
# rat = settings: ref Hazardous Substances Data Bank (HSDB); cited from earlier work
# primary cultured cells = settings: cited from earlier work
SMILES,"pIC50 ([1]; Homo sapiens, SK-N-SH, 24 h)",Survival of primary cultured neurons ([2]; 0.5 mM),log Pow [3],LD50 rat (intraperitoneal) (rat),Concentration causing the death of all primary cultured cells (primary cultured cells),Survival of primary cultured neurons ([2]; 1 mM),"pIC50 ([1]; SK-N-SH cells, MTT assay, 24 h exposure)"
CCCCCCCC=O [n-Octanal],4.43,almost all of the primary cultured neurons died,2.78,–,–,–,–
"Cc1ccccc1 [Toluene, reference compound]",3.07,–,–,1332 mg/kg,2000 µM,–,–
CC/C=C\CCO [cis-3-Hexen-1-ol],2.64,–,–,–,–,almost all of the cells in culture dishes died,–
C=CC(C)(O)CCC=C(C)C (centres unmarked) [Linalool],2.88,–,–,307 mg/kg,–,almost all of the cells in culture dishes died,–
OCCc1ccccc1 [Phenethyl alcohol],2.62,–,–,–,–,almost all of the cells in culture dishes survived,–
CCCCCCCCC=O [Nonanal],5.08,almost all of the primary cultured neurons died,3.27,–,–,–,–
CCCCC(CC)CO (centres unmarked) [2-Ethyl-1-hexanol],4.82,almost all of the primary cultured neurons died,2.73,500 mg/kg,–,–,–
CCCO [n-Propyl alcohol],–,–,–,164 mg/kg,–,almost all of the cells in culture dishes survived,< 2.30
